# In article PMC4309438, “Capacitance-modulated transistor detects odorant binding protein chiral interactions” (Nature Communications, 2015):
# Like-named read-outs stand apart in the source and are kept apart here.
# Assays:
# pOBP-mutant-F88W = target: T1, pOBP-mutant-F88W (Sus scrofa, UniProt P81245, F88W); experiment: Competitive fluorescent binding assay of pOBP in solution (1-AMA probe); set-up: species or system porcine; details: pOBP and 1-AMA probe at 1 μM, 10 mM phosphate buffer pH 7.4, room temperature, calculated from IC50, read-out: dissociation constant KSol
# T1 construct: His6 (N); made in house; host or cells: Escherichia coli BL21(DE3), pET5b vector
# T1 sequence (P81245 1-157 F88W): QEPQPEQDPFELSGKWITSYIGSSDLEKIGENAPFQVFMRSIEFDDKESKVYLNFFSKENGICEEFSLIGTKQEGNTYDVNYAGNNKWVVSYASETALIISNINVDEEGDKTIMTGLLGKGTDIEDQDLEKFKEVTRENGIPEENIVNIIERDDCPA
# Procedure: Emission fluorescence spectra were recorded using a Perkin Elmer LS55 instrument at room temperature, with a 1 cm light path quartz cuvette and 5 nm slits for both excitation and emission. The affinity of binding of pOBP was measured using the fluorescence probe 1-AMA as previously reported. About 1 μM pOBP-F88W solution in 10 mM phosphate buffer, pH 7.4, was titrated with aliquots of 1 mM 1-AMA in methanol to final concentrations of 0.25–8 μM. The probe was excited at 375 nm and the fluorescence spectra were recorded between 400 to 570 nm, monitoring the signals between 480 and 490 nm. The dissociation constant (K1-AMA) for the OBP/1-AMA complex was calculated using the equation y=(Bmax × x)/(K1-AMA+x), where y is the degree of saturation, Bmax is the number of maximum binding sites, and K1-AMA is the dissociation constant. The calculation was run using the software Sigma Plot and a single binding site was considered for the OBP.
# The affinity of pOBP-F88W towards S-(+)-carvone and R-(−)-carvone and 2-phenylethanol was measured in competitive binding assays, using both pOBP and probe at 1 μM as the final concentration. The ligand solutions, with concentrations ranging from 2 to 20 μM, were prepared in 10 mM phosphate buffer pH 7.4 and used for the binding experiments. Dissociation constants of competitors were calculated from the corresponding IC50 values, using the equation: KSol=[IC50]/1+[1-AMA]/K1-AMA, where [1-AMA] is the free concentration of the fluorescence probe and K1-AMA is the dissociation constant of the complex OBP/1-AMA.
# [1] = target: T2, pOBP-SAM (pOBP-F88W immobilized on gold gate) (Sus scrofa, UniProt P81245, F88W); experiment: WGOFET with pOBP-SAM gate: binding curves from ΔI/I electronic response; set-up: species or system porcine; details: for α (Hill degree of cooperativity): Hill's isotherm fit of binding curve of Fig. 5b; for Kd: pOBP-SAM gate, fit of ΔI/I binding curve of Fig. 5b; for ΔC/C, fractional change of pOBP-SAM capacitance (measured chiral response): at saturation, extracted from source-drain current (Fig. 8a); for plateau response at saturation (ΔI/I): best-fit parameter of binding curve of Fig. 5b, IDS at VG=−0.5 V; for WGOFET response at saturation: binding curves of Fig. 5b; for maximum fractional decrease of IDS: control experiment of Fig. 6: same pOBP-SAM gate exposed alternately to the two enantiomers, rinsed between exposures
# T2 construct: His6 (N); made in house; host or cells: Escherichia coli BL21(DE3), pET5b vector
# T2 sequence (P81245 1-157 F88W): T1 sequence (P81245 1-157 F88W)
# Excerpt: where Ci≈COBP is the capacitance per unit area. In Fig. 5a, the pOBP-WGOFET transfer-characteristics (IDS versus VG at VDS=−0.5 V) are reported for a device gated with a pristine pOBP-SAM (baseline, red curve) along with the traces measured after exposing the pOBP-SAM to progressively higher concentrations of (S)-(+)carvone (signal, black curves). Apparently, a significant degree of current decrease can be measured even at very low ligand concentrations. In the Supplementary Fig. 8, the gate leakage currents (IG) for the data of Fig. 5a are reported for comparison. […] From the transfer curve the COBP and μFET product, as well as the VT values are extracted. μFET can be as high as (1.1±0.2) × 10^−1 cm^2 V^−1 s^−1, showing a very good level of performance for the pOBP-SAM WGOFET[37]. The fractional current decrease upon binding was evaluated from the transfer curves as ΔI/I=[(I−I0)I0^−1] with I and I0 being IDS values at VG=−0.5 V for the signal and for the base-line curves, respectively. ΔI/I was taken as the WGOFET electronic response as this normalizes the device-to-device variation in FET biosensors, resulting in high response reproducibility.
# The fitting of the (S)-(+)-carvone binding curve (red solid line in Fig. 5b) is performed using Langmuir’s isotherm Y=bMAX(X/(KFET+X)), where Y is the ΔI/I electronic response proportional, through bmax, to the degree of saturation. X is the ligand concentration and KFET is the dissociation constant. The fitting of the (R)-(−)-carvone (magenta solid curve in Fig. 5b) was calculated using Hill’s binding model, also used to model the data relevant to the 2-phenylethanol (blue curve). The Hill’s equation is Y=bMAX(X^α/(KFET+X^α)), with α giving the degree of cooperativity (α=1 for non-cooperative, α>1 and α<1 for positive and negative cooperativity, respectively). The fit of the S-(+)-carvone data to a Langmuir’s non-cooperative binding isotherm[39] returns a dissociation constant KFET^+=0.81±0.05 nM and a plateau response at a saturation of (ΔI/I)^+=0.62±0.01, while the limit-of-detection is 50 pM and the limit-of-quantification is 150 pM. The detection of carvone enantiomers here performed is about 6 orders of magnitude better than the determinations performed with a back-gate device. A comparison between the two systems is not straightforward as they hold different device structures and different recognition elements. However, it is a fact that in the WGOFET a direct interaction between the bio-recognition element layer and an electronic interface, is created. The R-(−)-carvone data could only be accounted for by a Hill’s binding isotherm[38] that, through the α coefficient, models the extent of cooperativity of a given binding site. […] The fitting of the S-(+)-carvone to the Hill’s isotherm, performed as control, returns a KFET=0.4±0.2 nM and an α=1.1±0.1, consistent with the Langmuir’s fit. The errors are taken as 1 s.d., as for all data presented.
# PBTTT-C14 was dissolved (7 mg ml^−1) in a mixture of 1,2-dichlorobenzene and chloroform (9:1). Gold source (S) and drain (D) interdigitated electrodes were photo-lithographically defined on a flexible substrate. The distance between two differently biased fingers is the channel length (L), while the perimeter of each set of equipotential fingers is the channel width (W); they are 5 μm and 10^4 μm, respectively. The substrate with patterned electrodes was spin coated with a PBTTT-C14 solution at 7,000 r.p.m. for 60 s and annealed at 120 °C for 10 min. A gold plate with an area of ~3 10^−2 cm^2 served as the gate (G) electrode. The SAM functionalizing protocol[52] involved a 50 mM solution of 3-mercaptopropionic acid (3MPA) in ethanol containing 5% acetic acid. N2 was bubbled through the 3MPA solution for at least 10 min to remove dissolved oxygen. The gold electrodes were immersed into the 3MPA solution and kept in the dark under N2 for 18 h at 22 °C. […]
# human = test system: human; set-up: method as in earlier work; details: perceived as spearmint or caraway odours; cited from earlier work
# [2] = read-out: dissociation constant KFET (Hill's isotherm fit)
Kd (pOBP-mutant-F88W) [nM],α (Hill degree of cooperativity) [1],"Kd [1, 2] [nM]","ΔC/C, fractional change of pOBP-SAM capacitance (measured chiral response) [1]",plateau response at saturation (ΔI/I) [1],WGOFET response at saturation [1] [%],maximum fractional decrease of IDS [1],limit-of-detection ([1]; pOBP-SAM WGOFET) [pM],limit-of-quantification ([1]; pOBP-SAM WGOFET) [pM],"Kd ([1]; three devices, read-out: dissociation constant KFET (Langmuir's isotherm fit)) [nM]",Structure (SMILES),human threshold for detection (odour) (human) [nM]
~40000,0.3±0.1,700 ± 330,,,,,,,,OCCc1ccccc1 [2-phenylethanol],
1220 ± 50,0.5±0.1,20 ± 20,−0.17,0.17±0.02,< 20,much higher response at saturation,,,,C=C(C)[C@@H]1CC=C(C)C(=O)C1 [(R)-(−)-carvone],30
500 ± 10,1.1±0.1,0.4 ± 0.2,−0.485,0.62±0.01,> 60,~ 60%,50,150,0.81 ± 0.05,C=C(C)[C@H]1CC=C(C)C(=O)C1 [(S)-(+)-carvone],420
